For 13 compounds, IC50 results are on record in patent US11976083B2, “Inhibitors of peptidylarginine deiminases” (Gilead Sciences, Inc., priority 2020, dated 2024).

The target in the assay is T1, human PAD4 (Homo sapiens, UniProt Q9UM07).
T1 construct: human PAD4 (NM_012387), A2-P663, was PCR amplified; His-SUMO (N, cleaved yes); made in house; host or cells: E. coli BL21(DE3)
The experiment in a line: In vitro PAD4 BAEE biochemical assay. Conditions: BAEE substrate 3 mM, 5 nM PAD4, 2 mM calcium chloride; geometric mean of multiple experiments. The method, boiled down: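 PAD4 5 nM, CaCl2 2 mM, BAEE 3 mM final; 50 mM MOPS pH 7.6, 50 mM NaCl, 0.05% Tween-20, 2 mM DTT. Cpd + enzyme 30 min 25 °C; substrate 2 h 25 °C; EDTA stop; OPA detection 1 h. IC50 4-parameter fit.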

T1 sequence (Q9UM07 2-663): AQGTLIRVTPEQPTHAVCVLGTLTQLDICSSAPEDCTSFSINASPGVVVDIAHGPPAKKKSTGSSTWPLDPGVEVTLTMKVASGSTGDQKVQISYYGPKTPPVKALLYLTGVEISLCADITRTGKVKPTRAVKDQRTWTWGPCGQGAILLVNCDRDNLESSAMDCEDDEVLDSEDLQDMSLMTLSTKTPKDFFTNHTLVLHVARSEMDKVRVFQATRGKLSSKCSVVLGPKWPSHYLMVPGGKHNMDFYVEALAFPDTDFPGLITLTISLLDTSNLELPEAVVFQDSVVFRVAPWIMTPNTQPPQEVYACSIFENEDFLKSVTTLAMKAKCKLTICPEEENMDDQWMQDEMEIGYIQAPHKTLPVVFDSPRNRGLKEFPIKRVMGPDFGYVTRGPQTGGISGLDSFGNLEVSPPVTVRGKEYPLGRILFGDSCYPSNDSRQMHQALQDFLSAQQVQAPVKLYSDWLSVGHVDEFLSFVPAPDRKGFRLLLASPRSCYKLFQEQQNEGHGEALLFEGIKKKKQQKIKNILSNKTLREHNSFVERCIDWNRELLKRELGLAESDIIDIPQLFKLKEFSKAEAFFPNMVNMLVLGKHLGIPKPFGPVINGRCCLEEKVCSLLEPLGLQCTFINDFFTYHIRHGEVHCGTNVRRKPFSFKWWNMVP

For orientation: IC50 means the concentration that gives 50% inhibition. As to `COc1cc(C(=O)N2CCC[C@@H](N)C2)cc2nc(-c3cc4ccc5nc4n3CCCCCCNC(=O)c3cccc(C)c3-5)n(C)c12` [Example 57, 17-[5-[(3~{R})-3-aminopiperidine-1-carbonyl]-7-methoxy-1-methyl-benzimidazol-2-yl]-3-methyl-9,16,22-triazatetracyclo[14.5.2.0^{2,7}.0^{19,23}] tricosa-1(22),2,4,6,17,19(23),20-heptaen-8-one], the IC50 was determined as 213 nM. On to `C[C@H]1NC(=O)[C@@H]2C[C@H]2CCCC(F)(F)Cn2c(-c3nc4cc(C(=O)N5C[C@H](N)[C@@H]6CC[C@H]5C6)cc(F)c4n3[C@@H]3C[C@H]3C(F)F)cc3ccc1nc32` [Example 454, (2~{R},5~{R},7~{R})-14-[5-[(1~{S),4~{R},5~{R})-4-amino-2-azabicycło[3.2.1]octane-2-carbonyl]-1-[(1~{R},2~{R})-2-(difluoromethyl)cyclopropyl]-7-fluoro-benzimidazol-2-yl]-11,11-difluoro-2-methyl-3,13,19-triazatetracyclo[11.5.2.0^{5,7}.0^{16,20}] icosa-1(19),14,16(20),17-tetraen-4-one], for which the half-inhibitory concentration (IC50) is 31 nM. Turning to `COc1cc(C(=O)N2C[C@H](N)[C@@H]3CC[C@H]2C3)cc2nc(-c3cc4ccc5nc4n3CCCCCc3ccc(F)c(F)c3C(=O)N[C@@H]5C)n(C)c12` [Example 897, (2~{R})-17-[5-[(1~{S),4~{R}, 5~{R})-4-amino-2-azabicyclo [3.2.1]octane-2-carbonyl]-7-methoxy-1-methyl-benzimidazol-2-yl]-6,7-difluoro-2-methyl-3,16,22-triazatetracyclo [14.5.2.0^{5,10}.0^{19,23}] tricosa-1(22),5(10),6,8,17, 19(23),20-heptaen-4-one], the half-maximal inhibitory concentration (IC50) was found to be 40 nM.

As for `COc1cc(C(=O)N[C@@H]2CNC[C@H]3C[C@H]32)cc2nc(-c3cc4ccc5nc4n3CCCCCCC(C)(C)C(=O)N[C@@H]5C)n(C)c12` [Example 201, ~{N}-[(1~{S),5~{S},6~{R})-3-azabicyclo[4.1.0]heptan-5-yl]-7-methoxy-1-methyl-2-[(11~{R})-8,8,11-trimethyl-9-oxo-1,10,19-triazatricyclo[10.5.2.0^{15,18}]nonadeca-12(19),13,15(18),16-tetraen-17-yl]benzimidazole-5-carboxamide], the IC50 amounted to 737 nM. Consider `C[C@H]1NC(=O)[C@@H]2C[C@H]2CCCC(F)(F)Cn2c(-c3nc4cc(C(=O)N5C[C@H](N)[C@@H]6CC[C@H]5C6)cc(F)c4n3[C@@H]3C[C@H]3F)cc3ccc1nc32` [Example 477, (2~{R},5~{R},7~{R})-14-[5-[(1~{S},4~{R},5~{R})-4-amino-2-azabicyclo[3.2.1]octane-2-carbonyl]-7-fluoro-1-[(1~{R},2~{R})-2-fluorocyclopropyl]benzimidazol-2-yl]-11,11-difluoro-2-methyl-3,13,19-triazatetracyclo[11.5.2.0^{5,7}.0^{16,20}] icosa-1(19),14,16(20),17-tetraen-4-one], for which the IC50 came to 35 nM. On to `COc1cc(C(=O)N2[C@H]3CC[C@@H]2[C@H](N)C3)cc2nc(-c3cc4ccc5nc4n3CCCCCCC(=O)Nc3ccccc3-5)n(C)c12` [Example 87, 17-[5-[(1~{R},2~{R},4~{S})-2-amino-7-azabicyclo[2.2.1]heptane-7-carbonyl]-7-methoxy-1-methyl-benzimidazol-2-yl]-8,16,22-triazatetracyclo[14.5.2.0^{2,7}.0^{19,23}] tricosa-1(22),2,4,6,17,19(23),20-heptaen-9-one], for which the IC50 came to 83 nM. As for `C[C@H]1NC(=O)[C@@H]2C[C@H]2CCCC(F)(F)Cn2c(-c3nc4cc(C(=O)N5C[C@H](N)[C@@H]6CC[C@H]5C6)cc(F)c4n3C3CC3)cc3ccc1nc32` [Example 438, (2~{R},5~{R},7~{R})-14-[5-[(1~{S},4~{R},5~{R})-4-amino-2-azabicyclo[3.2.1]octane-2-carbonyl]-1-cyclopropyl-7-fluoro-benzimidazol-2-yl]-11,11-difluoro-2-methyl-3,13,19-triazatetracyclo[11.5.2.0^{5,7}.0^{16,20}] icosa-1(19),14,16(20),17-tetraen-4-one], the concentration for half-maximal inhibition (IC50) worked out at 25 nM. Regarding `COc1cc(C(=O)N2C[C@H](N)[C@@H]3CC[C@H]2C3)cc2nc(-c3cc4ccc5nc4n3CCCCCC[C@](C)(F)C(=O)N[C@@H]5C)n(C)c12` [Example 949, (8~{S},11~{R})-17-[5-[(1~{S},4~{R},5~{R})-4-amino-2-azabicyclo[3.2.1]octane-2-carbonyl]-7-methoxy-1-methyl-benzimidazol-2-yl]-8-fluoro-8,11-dimethyl-1,10,19-triazatricyclo [10.5.2.0^{15,18}]nonadeca-12(19),13,15(18),16-tetraen-9-one], the concentration for half-maximal inhibition (IC50) turned out to be 31 nM. As to `COc1cc(C(=O)N[C@H]2CNCC[C@@H]2F)cc2nc(-c3cc4ccc5nc4n3CCCCC[C@H]3C[C@]3(C)C(=O)N[C@@H]5C)n(C)c12` [Example 187, 2-[(2~{R},5~{S},7~{S})-2,5-dimethyl-4-oxo-3,13,19-triazatetracyclo[11.5.2.0^{5,7}.0^{16,20}]icosa-1(19),14,16(20),17-tetraen-14-yl]-~ {N}-[(3~{S},4~{S})-4-fluoro-3-piperidyl]-7-methoxy-1-methyl-benzimidazole-5-carboxamide], the 50% inhibitory concentration (IC50) worked out at 109 nM. `COc1cc(C(=O)N2[C@H]3CC[C@@H]2[C@H](N)C3)cc2nc(-c3cc4ccc5nc4n3CCCCCCCC(=O)N(C)[C@@H]5C)c(C)n12` [Example 319, (11~{R})-17-[7-[(1~{R},2~{R},4~{S})-2-amino-7-azabicyclo[2.2.1]heptane-7-carbonyl]-5-methoxy-3-methyl-imidazo[1,2-a]pyridin-2-yl]-10,11-dimethyl-1,10,19-triazatricyclo[10.5.2.0^{15,18}]nonadeca-12(19),13,15(18),16-tetraen-9-one]: the IC50 was 266 nM. In the case of `COCCn1c(-c2cc3ccc4nc3n2CCCCC[C@@H]2C[C@H]2C(=O)N[C@@H]4C)nc2cc(C(=O)N[C@H]3CNCC[C@@H]3F)cc(OC)c21` [Example 431, ~{N}-[(3~{S},4~{S})-4-fluoro-3-piperidyl]-7-methoxy-1-(2-methoxyethyl)-2-[(2~{R},5~{R},7~{R})-2-methyl-4-oxo-3,13,19-triazatetracyclo[11.5.2.0^{5,7}.0^{16,20}]icosa-1(19),14,16(20),17-tetraen-14-yl]benzimidazole-5-carboxamide] it was 41 nM; in that of `COc1cc(C(=O)N2[C@H]3CC[C@@H]2[C@H](N)C3)cc2nc(-c3cc4ccc5nc4n3CCCCCCNc3ncccc3-5)n(C)c12` [Example 96, [(1˜{R},2˜{R},4˜{S})-2-amino-7-azabicyclo[2.2.1]heptan-7-yl]-[7-methoxy-1-methyl-2-(6,8,15,21-tetrazatetracyclo[13.5.2.0^{2,7}.0^{18,22}]docosa-1(21),2,4,6,16,18(22),19-heptaen-16-yl)benzimidazol-5-yl]methanone], 3130 nM; in that of `COc1cc(C(=O)N2C[C@H](N)[C@@H]3CC[C@H]2C3)cc2nc(-c3cc4ccc5nc4n3CCCCCc3cc(F)c(F)cc3C(=O)N[C@@H]5C)n(C)c12` [Example 927, (2~{R})-17-[5-[(1~{S},4~{R}, 5~{R})-4-amino-2-azabicyclo [3.2.1]octane-2-carbonyl]-7-methoxy-1-methyl-benzimidazol-2-yl]-7,8-difluoro-2-methyl-3,16,22-triazatetracyclo[14.5.2.0^ {5,10}.0^{19,23}]tricosa-1(22),5(10),6,8,17,19(23),20-heptaen-4-one], 49 nM.
